In ChEMBL document CHEMBL3259572, “Euodenine A: a small-molecule agonist of human TLR4” (J Med Chem, 2014):
Activity calls are given as the source filed them. No cut-off for these calls is given here.

Legend:
Type in all cases: cell-based
[1] = target: T1, Toll-like receptor 4 (Homo sapiens, UniProt O00206); test: Intrinsic activity at human recombinant TLR4 expressed in HEK293 cells by SEAP reporter assay relative to LPS
[2] = target: T1, Toll-like receptor 4; test: Agonist activity at human recombinant TLR4 expressed in HEK293 cells by SEAP reporter assay
[3] = target: T1, Toll-like receptor 4; test: Agonist activity at human recombinant TLR4 expressed in HEK293 cells at 60 uM by SEAP reporter assay
[4] = tested on: PBMC; test: Cytotoxicity against PHA-stimulated human PBMC assessed as reduction in cell viability at 20 uM by WST-1 cell proliferation assay
[5] = Cytotoxicity against PHA-stimulated human PBMC assessed as reduction in cell viability at 50 uM by WST-1 cell proliferation assay
[6] = target: T1, Toll-like receptor 4; test: Agonist activity at human recombinant TLR4 expressed in HEK293 cells at 30 uM by SEAP reporter assay
[7] = target: T1, Toll-like receptor 4; test: Agonist activity at human recombinant TLR4 expressed in HEK293 cells at 25 uM by SEAP reporter assay
[8] = target: T1, Toll-like receptor 4; test: Agonist activity at human recombinant TLR4 expressed in HEK293 cells at 71.5 uM by SEAP reporter assay
[9] = target: T1, Toll-like receptor 4; test: Agonist activity at human recombinant TLR4 expressed in HEK293 cells at 300 uM by SEAP reporter assay
[10] = target: T1, Toll-like receptor 4; test: Agonist activity at human recombinant TLR4 expressed in HEK293 cells at 333 uM by SEAP reporter assay

T1 sequence (O00206 whole entry): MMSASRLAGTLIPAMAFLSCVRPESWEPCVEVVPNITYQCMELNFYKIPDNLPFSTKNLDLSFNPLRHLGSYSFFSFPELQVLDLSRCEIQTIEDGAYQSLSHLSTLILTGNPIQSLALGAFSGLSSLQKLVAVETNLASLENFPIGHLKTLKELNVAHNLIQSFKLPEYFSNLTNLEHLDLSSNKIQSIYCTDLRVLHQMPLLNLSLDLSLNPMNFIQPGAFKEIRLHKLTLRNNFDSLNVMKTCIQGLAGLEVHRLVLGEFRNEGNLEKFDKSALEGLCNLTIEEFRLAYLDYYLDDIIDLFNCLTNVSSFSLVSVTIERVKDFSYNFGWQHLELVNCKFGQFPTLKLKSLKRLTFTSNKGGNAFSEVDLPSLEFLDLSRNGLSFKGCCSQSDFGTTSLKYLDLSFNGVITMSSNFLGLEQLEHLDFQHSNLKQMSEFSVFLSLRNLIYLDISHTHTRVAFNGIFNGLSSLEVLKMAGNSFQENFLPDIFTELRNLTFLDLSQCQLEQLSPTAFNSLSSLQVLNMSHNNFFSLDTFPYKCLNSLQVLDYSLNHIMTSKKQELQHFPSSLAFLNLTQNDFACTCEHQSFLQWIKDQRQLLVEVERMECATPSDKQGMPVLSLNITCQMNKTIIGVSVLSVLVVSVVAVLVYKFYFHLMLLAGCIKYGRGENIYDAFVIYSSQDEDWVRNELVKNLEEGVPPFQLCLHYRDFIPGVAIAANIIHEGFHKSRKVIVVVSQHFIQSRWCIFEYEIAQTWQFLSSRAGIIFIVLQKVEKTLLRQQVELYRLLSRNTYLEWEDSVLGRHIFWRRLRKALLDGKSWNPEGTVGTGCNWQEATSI

SMILES	Intrinsic activity [1]	EC50 [2]	also measured
COc1ccc([C@H]2[C@H]3c4c(c5ccccc5[nH]c4=O)OC(C)(C)[C@H]3[C@@H]2C2CC2)cc1OCCCO	0.88	0.79 µM	
COc1ccc2[nH]c(=O)c3c(c2c1)OC(C)(C)[C@H]1[C@H](C)[C@@H](c2cc(OC)c(OC)c(OC)c2)[C@@H]31		> 10 µM	
COc1ccc([C@H]2[C@H]3c4c(c5ccccc5[nH]c4=O)OC(C)(C)[C@H]3[C@@H]2C(C)C)cc1OCCO	0.46	0.5 µM	
COc1ccc([C@@H]2[C@@H](C)[C@H]3[C@@H]2c2c(c4ccccc4[nH]c2=O)OC3(C)C)c(Cl)c1OC	0.44	3.1 µM	
CCC[C@]1(c2cc(OC)c(OC)c(OC)c2)O[C@H]2c3c(c4ccccc4[nH]c3=O)OC(C)(C)[C@H]2O1			Activity [3]: inactive
COc1ccc([C@H]2[C@H]3c4c(c5ccccc5[nH]c4=O)OC(C)(C)[C@H]3[C@@H]2C(C)C)cc1OC(C)=O		> 10 µM	
COc1ccc2[nH]c(=O)c3c(c2c1)OC(C)(C)[C@@H]1[C@H]3[C@H](c2ccc(OC)c(OC)c2)[C@H]1C(C)C		> 10 µM	
CC[C@@H]1[C@@H](c2ccc(OC)c(OC)c2)[C@H]2c3c(c4ccccc4n(C)c3=O)OC(C)(C)[C@@H]12	0.61	2 µM	
CCC[C@]1(c2ccc(OC)c(OC)c2)O[C@H]2c3c(c4ccccc4[nH]c3=O)OC(C)(C)[C@H]2O1	0.2	15.8 µM	
COc1ccc([C@@H]2[C@@H](C)[C@H]3[C@@H]2c2c(c4ccccc4[nH]c2=O)OC3(C)C)cc1Br	0.28	3.9 µM	
COC[C@@H]1[C@@H](c2ccc(OC)c(OC)c2)[C@H]2c3c(c4ccccc4n(C)c3=O)OC(C)(C)[C@@H]12			Activity [4]: Non-toxic; inhibition at 50 µM [5]: 30%
CC[C@@H]1[C@@H](c2ccc(OC)c(F)c2)[C@H]2c3c(c4ccccc4n(C)c3=O)OC(C)(C)[C@@H]12	0.36	3.1 µM	
COc1cc([C@@H]2[C@@H](C)[C@H]3[C@@H]2c2c(c4ccccc4[nH]c2=O)OC3(C)C)ccc1O		> 10 µM	
COc1ccc([C@H]2[C@H]3c4c(c5ccccc5n(C)c4=O)OC(C)(C)[C@H]3[C@@H]2C(C)C)cc1Cl	0.53	3.1 µM	
COc1cc([C@@H]2C[C@H]3[C@@H]2c2c(c4ccccc4[nH]c2=O)OC3(C)C)cc(OC)c1OC			Activity [6]: inactive
COc1ccc([C@H]2[C@H]3c4c(c5ccccc5[nH]c4=O)OC(C)(C)[C@H]3[C@@H]2C(C)C)cc1OC(=O)CCC(=O)O	0.29	6.3 µM	

SMILES	Intrinsic activity [1]	EC50 [2]	also measured
COC(=O)[C@@H]1C(c2cc(OC)c(OC)c(OC)c2)[C@H]2c3c(c4ccccc4[nH]c3=O)OC(C)(C)C12 (single isomer, unassigned)			Activity [7]: inactive
COc1cc([C@H]2[C@H]3c4c(c5cc(C)ccc5n(C)c4=O)OC(C)(C)[C@H]3[C@@H]2C(C)C)cc(OC)c1OC	0.41	7.9 µM	
COc1cc([C@@H]2[C@@H](C)[C@@H]3C(C)Oc4c(c(=O)[nH]c5ccccc45)[C@H]23)cc(OC)c1OC (single isomer, unassigned)		> 10 µM	
COc1ccc([C@@H]2[C@@H](C(=O)C3CC3)[C@H]3[C@@H]2c2c(c4ccccc4[nH]c2=O)OC3(C)C)cc1OC	0.62	7.9 µM	
COc1cc([C@H]2[C@H]3c4c(c5ccccc5[nH]c4=O)OC(C)(C)[C@H]3[C@@H]2C(C)C)cc(OC)c1OC	1.18	0.79 µM	
CCOc1ccc([C@H]2[C@H]3c4c(c5ccccc5[nH]c4=O)OC(C)(C)[C@H]3[C@@H]2C(C)C)cc1OC	0.19	3.9 µM	
C[C@@H]1[C@@H](c2ccccc2)[C@H]2c3c(c4ccccc4[nH]c3=O)OC(C)(C)[C@@H]12			Activity [8]: inactive
CCCC[C@@H]1[C@@H](c2cc(OC)c(OC)c(OC)c2)[C@H]2c3c(c4ccccc4[nH]c3=O)OC(C)(C)[C@@H]12	0.69	2 µM	
COc1ccc([C@@H]2[C@@H](C(C)=O)[C@H]3[C@@H]2c2c(c4ccccc4[nH]c2=O)OC3(C)C)cc1OC	0.3	10 µM	
CCCC[C@@H]1[C@@H](c2ccc(OC)c(OC)c2)[C@H]2c3c(c4ccccc4[nH]c3=O)OC(C)(C)[C@@H]12	1.01	1.2 µM	
COc1ccc([C@H]2[C@H]3c4c(c5ccccc5[nH]c4=O)OC(C)(C)[C@H]3[C@@H]2C(C)C)cc1Cl	0.47	2 µM	
COc1ccc([C@@H]2[C@@H](C)[C@H]3[C@@H]2c2c(c4ccccc4[nH]c2=O)OC3(C)C)cc1		> 10 µM	
COc1cc([C@@H]2[C@@H](C)[C@H]3[C@@H]2c2c(c4ccccc4[nH]c2=O)OC3(C)C)ccc1OCc1ccccc1			Activity [9]: inactive
CCOC(=O)[C@@H]1[C@@H](c2ccc(Br)cc2)[C@H]2c3c(c4ccccc4[nH]c3=O)OC(C)(C)[C@@H]12			Activity [10]: inactive
COc1cc(C2[C@@H](COC(C)C)C3[C@@H]2c2c(c4ccccc4[nH]c2=O)OC3(C)C)cc(OC)c1OC (single isomer, unassigned)			Activity [9]: inactive
COc1ccc([C@H]2[C@H]3c4c(c5ccccc5[nH]c4=O)OC(C)(C)[C@H]3[C@@H]2C(C)C)cc1OC	0.9	1 µM	

Second part, led by results:

Intrinsic activity [1]	EC50 [2]	SMILES	also measured
0.64	2.5 µM	COc1ccc([C@@H]2[C@@H](C)[C@H]3[C@@H]2c2c(c4ccccc4n(C)c2=O)OC3(C)C)cc1OC	
0.29	3.1 µM	CC[C@@H]1[C@@H](c2ccc(OC)c(OC)c2)[C@H]2c3c(c4cc(C)ccc4n(C)c3=O)OC(C)(C)[C@@H]12	
0.31	3.1 µM	COc1ccc([C@H]2[C@H]3c4c(c5ccccc5n(C)c4=O)OC(C)(C)[C@H]3[C@@H]2C(C)C)cc1OC(C)=O	
0.2	2 µM	COc1ccc([C@H]2[C@H]3c4c(c5ccccc5[nH]c4=O)OC(C)(C)[C@H]3[C@@H]2C(C)C)cc1CCl	
0.81	0.79 µM	COc1cc([C@H]2[C@H]3c4c(c5ccccc5n(C)c4=O)OC(C)(C)[C@H]3[C@@H]2C2CC2)cc(OC)c1OC	
1.01	1.2 µM	CC[C@@H]1[C@@H](c2ccc(OC)c(OC)c2)[C@H]2c3c(c4ccccc4[nH]c3=O)OC(C)(C)[C@@H]12	
0.75	0.63 µM	COc1ccc([C@H]2[C@H]3c4c(c5ccccc5[nH]c4=O)OC(C)(C)[C@H]3[C@@H]2C2CC2)cc1OC	
0.7	3.1 µM	CCC[C@]1(c2cc(OC)cc(OC)c2)O[C@H]2c3c(c4ccccc4[nH]c3=O)OC(C)(C)[C@H]2O1	
0.9	0.39 µM	COc1ccc([C@H]2[C@H]3c4c(c5ccccc5[nH]c4=O)OC(C)(C)[C@H]3[C@@H]2C2CCCC2)cc1OC	
0.69	2.5 µM	COc1cc([C@H]2[C@H]3c4c(c5ccccc5n(C)c4=O)OC(C)(C)[C@H]3[C@@H]2C2CCCC2)cc(OC)c1OC	
1.05	0.79 µM	CC[C@@H]1[C@@H](c2cc(OC)c(OC)c(OC)c2)[C@H]2c3c(c4ccccc4[nH]c3=O)OC(C)(C)[C@@H]12	
0.1	5 µM	COc1cc(C2[C@@H](COC(C)=O)C3[C@@H]2c2c(c4ccccc4[nH]c2=O)OC3(C)C)cc(OC)c1OC (single isomer, unassigned)	
0.3	3.1 µM	CC[C@@H]1[C@@H](c2cc(OC)c(OC)c(OC)c2)[C@H]2c3c(c4cc(C)ccc4n(C)c3=O)OC(C)(C)[C@@H]12	
0.63	0.63 µM	COc1cc([C@H]2[C@H]3c4c(c5ccccc5[nH]c4=O)OC(C)(C)[C@H]3[C@@H]2C2CCCC2)cc(OC)c1OC	
0.69	3.1 µM	COc1ccc([C@@H]2[C@@H](C)[C@H]3[C@@H]2c2c(c4ccccc4[nH]c2=O)OC3(C)C)cc1OC	
0.82	0.63 µM	COc1cc([C@H]2[C@H]3c4c(c5ccccc5[nH]c4=O)OC(C)(C)[C@H]3[C@@H]2C2CC2)cc(OC)c1OC	
0.19	3.9 µM	COc1ccc([C@H]2[C@H]3c4c(c5ccccc5[nH]c4=O)OC(C)(C)[C@H]3[C@@H]2C2CC2)cc1OCCCN1CCOCC1	
0.46	3.1 µM	COc1cc(OC)cc([C@@H]2[C@@H](C)[C@H]3[C@@H]2c2c(c4ccccc4[nH]c2=O)OC3(C)C)c1	
	> 10 µM	COc1ccc([C@@H]2[C@@H](C)[C@H]3[C@@H]2c2c(c4ccccc4[nH]c2=O)OC3(C)C)c(OC)c1OC	
